Positions of bridges follow the written chain, without caps; N, C: chain ends. Non-standard residues stand in square brackets, D forms with d. Residues, ends and D or L forms follow the SMILES beside them. *: point of attachment. Heptanoyl(6-Me) = CC(C)CCCCC(=O)*; Dab = NCC[C@H](N)C(=O)O
Test system: E. coli K12
Experiment: Infection assay in human plasma (CFU test, PMN/E. coli co-culture)
Assay type: cell-based, Escherichia coli
Conditions: 10 μM, human blood plasma, bacteria:PMN 16:1, 1 h, 37 °C
Procedure: Figure 5 Cellular proof of concept for triggered antibiotic release from 6. a) Release of neutrophil elastase (NE) from neutrophil granulocytes. PMN were isolated and suspended in RPMI 1640. For activation, 0.1 μM fMLP was added. The samples were incubated for 1 h at 37 °C, centrifuged to remove cells, and the NE concentration was determined in the supernatant by ELISA. Values normalized to 1×10^6 cells mL^−1. Data are presented as the mean of 4 separate experiments. *p<0.03 compared to unactivated. b) Activity of NE after co‐cultivation of PMN with E. coli K12 in presence of 1 or 6. […] After 1 h colistin concentrations were determined by HPLC–MS. […]
Calculation of results: All samples and standards were measured in duplicate. The standard curve was constructed by plotting the mean absorbance for each standard on the y-axis against the concentration on the x-axis. A linear regression analysis was performed and the results for the samples were calculated. […]
on. […] The plate was incubated in a microplate reader for 60 min at 37 °C with shaking for 5 sec at 50 rpm once per minute.
Every minute readings were taken at 410 nm. For the calculation of the cleavage velocity, the difference in absorbance after an initialization phase at 15 min and a further incubation time of 30 min was used and related to total cleavage of the substrate. The blank was subtracted from the readings. […]

## CC(C)CCCCC(=O)N[C@@H](CCN)C(=O)N[C@H](C(=O)N[C@@H](CCN)C(=O)N[C@H]1CCNC(=O)[C@H]([C@@H](C)O)NC(=O)[C@H](CCN)NC(=O)[C@H](CCN)NC(=O)[C@H](CC(C)C)NC(=O)[C@@H](CC(C)C)NC(=O)[C@H](CCN)NC1=O)[C@@H](C)O [Compound 1, colistin B, reference compound] ({Heptanoyl(6-Me)}-[Dab]T[Dab][Dab][Dab][dL]L[Dab][Dab]T; lactam 4-C)
  effect on bacterial growth: abolished growth completely
